The test system of one series is demodex. The settings on record: components of TTO; WO06119174 A1 and WO09032773 A2; cited from earlier work.
The nature of series [1]: Physical stability of terpinen-4-ol in aqueous media (phase separation, clarity). It counts as physicochemical. The procedure: The compositions according to the invention are physically stable, i.e. clear, transparent and without precipitates, and substantially retain the initial content of the initial ingredient.
For example, on a lab scale, terpinen-4-ol and a mixture of PPG-26 buteth-26 (b2), PEG-40 hydrogenated castor oil (b3) and trideceth-9 (b4) were mixed in water and stirred for about 30 minutes. Cocamidopropyl betaine was then added and a clear solution was obtained, which was verified as stable.

`C=C(C)C1CC=C(C)C(=O)C1` (stereo not shown) [carvone, reference compound]: the “activity against demodex in vitro” value in the series on demodex is on record as “active”.

`CC1=CCC(O)(C(C)C)CC1` (stereo not shown) [terpinen-4-ol]: the “activity against demodex in vitro” value in the series on demodex is “active”. Besides, the “behaviour in aqueous media” value in series [1] (concentrations below 2% in weight/weight of the composition, in the presence of commonly used emulsifiers and surfactants) was “tends to separate from aqueous media”; in series [1] (in the presence of Tween 20 in a weight ratio to terpinen-4-ol up to 5:1) it was “two-phase system”.

The values above are taken from patent EP3638219B1, “COMPOSITION COMPRISING TERPINENE-4-OL FOR THE TREATMENT OF DEMODICOSIS” (priority 2017, dated 2018).
